Assays:
Experiment in all cases: relative viability (nuclei count vs DMSO), 5 days (fraction); higher = more cells survive
YM155 + OSI-027 = compound: COCC[n+]1c2c(n(Cc3cnccn3)c1C)C(=O)c1ccccc1C2=O [YM155] + COc1cccc2cc(-c3nc([C@H]4CC[C@H](C(=O)O)CC4)n4ncnc(N)c34)[nH]c12 [OSI-027] (partner 0.5 µM)
Method in brief: (§1)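 After 5 days of treatment, lung cancer cells in 1536-well plates were fixed and stained in a single step (final 0.05% Triton X-100, 1% formaldehyde, 1 ug/ml Hoechst) and their nuclei counted on 4× images. Treatment had been applied by pin tool the day after seeding as one drug alone or as a fixed anchor-drug dose with five library-drug doses (not always all listed) in √10 steps. Relative viability is the nuclei count of treated wells divided by that of vehicle wells, and values are medians of duplicate plates.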

YM155 + Alpelisib = compound: COCC[n+]1c2c(n(Cc3cnccn3)c1C)C(=O)c1ccccc1C2=O [YM155] + Cc1nc(NC(=O)N2CCC[C@H]2C(N)=O)sc1-c1ccnc(C(C)(C)C(F)(F)F)c1 [Alpelisib] (partner 2 µM)
Method in brief: as §1

YM155 + Vorinostat = compound: COCC[n+]1c2c(n(Cc3cnccn3)c1C)C(=O)c1ccccc1C2=O [YM155] + O=C(CCCCCCC(=O)Nc1ccccc1)NO [Vorinostat] (partner 1 µM)
Method in brief: as §1

YM155 + Linsitinib = compound: COCC[n+]1c2c(n(Cc3cnccn3)c1C)C(=O)c1ccccc1C2=O [YM155] + C[C@]1(O)C[C@@H](c2nc(-c3ccc4ccc(-c5ccccc5)nc4c3)c3c(N)nccn32)C1 [Linsitinib] (partner 1 µM)
Method in brief: as §1

Cell Line | relative viability (YM155 + OSI-027; first compound 0.002 µM) | relative viability (YM155 + OSI-027; first compound 0.006325 µM) | relative viability (YM155 + OSI-027; first compound 0.02 µM) | relative viability (YM155 + OSI-027; first compound 0.06325 µM) | relative viability (YM155 + Alpelisib; first compound 0.002 µM) | relative viability (YM155 + Alpelisib; first compound 0.006325 µM) | relative viability (YM155 + Alpelisib; first compound 0.02 µM) | relative viability (YM155 + Alpelisib; first compound 0.06325 µM) | relative viability (YM155 + Vorinostat; first compound 0.002 µM) | relative viability (YM155 + Vorinostat; first compound 0.006325 µM) | relative viability (YM155 + Vorinostat; first compound 0.02 µM) | relative viability (YM155 + Vorinostat; first compound 0.06325 µM) | relative viability (YM155 + Linsitinib; first compound 0.002 µM) | relative viability (YM155 + Linsitinib; first compound 0.006325 µM) | relative viability (YM155 + Linsitinib; first compound 0.02 µM) | relative viability (YM155 + Linsitinib; first compound 0.06325 µM)
H3255 | 0.577 | 0.56 | 0.652 | 0.569 | 0.707 | 0.658 | 0.714 | 0.682 | 0.729 | 0.78 | 0.776 | 0.671 | 1.04 | 0.875 | 0.917 | 0.981
NCI-H1755 | 0.716 | 0.753 | 0.747 | 0.705 | 0.892 | 0.926 | 0.973 | 1.02 | 0.752 | 0.671 | 0.622 | 0.845 | 0.972 | 1.03 | 0.974 | 0.976
IA-LM | – | – | – | – | 0.578 | 0.907 | 0.738 | 0.644 | 0.863 | 0.932 | 0.942 | 0.97 | 0.392 | 0.697 | 0.745 | 0.373
NCI-H23 | 0.498 | 0.66 | 0.599 | 0.522 | 0.707 | 0.669 | 0.71 | 0.271 | – | 0.555 | 0.626 | 0.544 | 0.54 | 0.595 | 0.598 | 0.295
NCI-H661 | 0.703 | 0.722 | 0.708 | 0.308 | 0.637 | 0.657 | 0.862 | 0.59 | 0.765 | 0.784 | 0.883 | 0.364 | 0.697 | 0.699 | 0.54 | 0.598
PC-14 | 0.788 | 0.901 | 0.829 | 0.371 | 1 | 1.02 | 0.953 | 0.811 | 0.669 | 0.694 | 0.779 | 0.252 | 0.967 | 0.984 | 0.981 | 0.993
NCI-H647 | 0.812 | 0.736 | 0.762 | 0.483 | 0.989 | 1.11 | 1.09 | 0.901 | 0.472 | 0.484 | 0.755 | 0.388 | 1.11 | 1.37 | 0.996 | 0.857
NCI-H1792 | 0.743 | 0.889 | 0.677 | 0.83 | 0.67 | 0.73 | 0.703 | 0.759 | – | – | – | – | 0.507 | 0.548 | 0.552 | 0.626
SW 900 | 0.544 | 0.501 | 0.557 | 0.478 | – | – | – | – | – | 0.465 | 0.582 | 0.408 | – | – | – | –
EKVX | 0.683 | 0.759 | 0.683 | 0.687 | 0.897 | 0.916 | 0.859 | 0.813 | 0.767 | 0.793 | 0.671 | 0.725 | 0.958 | 1.09 | 1.04 | 0.697
COR-L23 | 0.692 | 0.735 | 0.488 | 0.132 | 0.646 | 0.671 | 0.449 | 0.154 | 0.434 | 0.501 | 0.274 | 0.125 | 0.846 | 0.857 | 0.463 | 0.174

Source: the supplement of paper PMC10307832
